Calls of active or inactive are those of the source. The rule behind the calls is not given here.

In one experiment the test system is Candida albicans. The experiment is described as follows: Antifungal activity against Candida albicans ATCC 14053 at 80 ug /disk by standard disk assay. As to conditions: read-out: IZ. Format: functional.
In another experiment the test system is Ascobolus. Put plainly: Antifungal activity against Ascobolus furfuraceus NRRL 6460 at 100 ug/disk by standard disk assay. Format: functional.

In general, inhibition refers to how much of the control response was suppressed. Low values mean a weak effect, high ones a strong effect. On to `CC(C)[C@H]1CC[C@@H]2[C@]1(C)CC[C@]1(C)C3=CC[C@H]4[C@](C)(C(=O)O)[C@@H](O)[C@H](O)[C@@H](O)[C@]4(C(=O)O)[C@H]3CC[C@@]21C` [POLYTOLYPIN], for which, in the experiment with Candida albicans, the zone of inhibition at 80 µg/disc worked out at 11 mm. The compound also yielded an inhibition at 100 µg/disc in the experiment with Ascobolus of 47%.
For the compound `Cc1cc(O)c2c3c(cc4c(c13)OC(C)C4(C)C)C(=O)/C(=N\C1C(=O)c3cc4c(c5c(C)cc(O)c(c35)C1=O)OC(C)C4(C)C)C2=O` (centres undefined), the outcome in the experiment on Ascobolus was inactive.
The compound `CC(=O)CC1(O)C(=O)c2cc3c(c4c(C)cc(O)c(c24)C1=O)OC(C)C3(C)C` (centres undefined) displayed an inhibition at 100 µg/disc in the experiment with Ascobolus of 47%.

(Values after ChEMBL document CHEMBL1150105, “Polytolypin, a new antifungal triterpenoid from the coprophilous fungus Polytolypa hystricis” (1995).)
